# Measurements reported in doi:10.1101/2024.06.16.599186v1 (biorxiv, 2024).
# Structures can show the parent of a compound that is named as a salt.
# Biological target: MoGep4 (Pyricularia oryzae, UniProt G4N1T8)
# Sequence (G4N1T8 1-216): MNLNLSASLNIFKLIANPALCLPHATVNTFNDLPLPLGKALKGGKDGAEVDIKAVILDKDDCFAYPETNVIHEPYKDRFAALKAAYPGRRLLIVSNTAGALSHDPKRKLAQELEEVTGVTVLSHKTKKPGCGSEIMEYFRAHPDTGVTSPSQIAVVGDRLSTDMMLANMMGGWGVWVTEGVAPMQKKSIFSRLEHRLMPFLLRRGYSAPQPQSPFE
compound,measurement,value
"CCCCC(CC)CNC(=N)NC(=N)NCCCCCCNC(=N)NC(=N)NCC(CC)CCCC (stereo not shown) [AXD, alexidine dihydrochloride]",% inhibition at 4 μM,62.9%
